Test results published in paper PMC4464186 (EXCLI Journal, 2014).

Experiments:
[1] = test system: metrazol-induced convulsion; conditions: metrazol-induced convulsion model, ref Sridhar et al., 2002, cited from earlier work
[2] = test system: mice; type: in vivo; conditions: rotarod; doses up to 300 mg/kg; 0.5 and 4.0 h
[3] = test system: Albino mice; type: in vivo; conditions: 100 mg/kg i.p.; with respect to control

Structure (SMILES) | protection ([1]; at 100 mg kg^-1) [%] | ED50 [1] [mg/kg] | neurotoxicity (motor impairment), in words [2] | % Increased of immobility [3] [%]
Cc1ccc2c(c1)C(=Nc1ccc(Cl)cc1)C(=O)N2 [3-(4-Chlorophenylimino)-5-methyl-1,3-dihydro-indol-2-one] | 87 | 53.61 |  | 
O=c1nc2[nH]c3ccc(Cl)cc3c2n[nH]1 [5e, 8-chloro-2H-[1,2,4]triazino[5,6-b]indol-3(5H)-one] |  |  | no motor impairment effect | 54.39
O=c1nc2[nH]c3c(Br)cc(Br)cc3c2n[nH]1 [5i, 6,8-dibromo-2H-[1,2,4]triazino[5,6-b]indol-3(5H)-one] |  |  |  | 37.68
Cn1c2nc(=O)[nH]nc2c2cc(Br)cc(Br)c21 [5k, 6,8-dibromo-5-methyl-2H-[1,2,4]triazino[5,6-b]indol-3(5H)-one] |  |  |  | 45.96
NC(=O)N1c2ccccc2C=Cc2ccccc21 [Carbamazepine, reference compound] |  |  |  | 58.63
